Results: patent US5602176A, “Phenyl carbamate” (priority 1987, dated 1997)
Where two headings read alike, the source gives them in different places.

Key:
AChE [1] = target: T1, AChE (Rattus norvegicus, UniProt P37136); format: in vivo; parameters: from tissue; host or cells: male OFA rats: cortex, hippocampus, striatum, pons/medulla, heart, blood; settings: Transdermal 30 μmol/kg
Method: (§1) The AChE activity is measured according to the method described by Ellman (Arch. Biochem. Biophys. 82, 70, 1959). Rat brain tissue is homogenized in cold phosphate buffer pH 7.3 (0.25 mM) containing 0.1% of Triton X-100. After centrifugation aliquots of the clear supernatant is used as enzyme source. The enzyme is preincubated with different concentrations of the inhibitor. After different times, substrate (acetylthiocholinjodide 0.5 mM) is added and the remaining activity determined.
The compounds are dissolved in or diluted with n-heptane to a concentration of 1 or 3 mg/20 μl. […] The application place is immediately covered using a thin plastic film and a plaster. The animal has no access to the plaster. Various times after the administration the animals are killed by decapitation and the remaining AChE activity is measured.

[2] = target: T2, AChE preparations of different rat brain regions (Rattus norvegicus, UniProt P37136); assay: Acetylcholinesterase inhibition in different rat brain regions (in vitro, Ellman); format: biochemical; settings: table 1
T2 construct: Rat brain tissue is homogenized in cold phosphate buffer pH 7.3; from tissue; host or cells: rat brain (cortex, hippocampus, striatum), supernatant of Triton X-100 homogenate
T2 sequence (P37136 32-614): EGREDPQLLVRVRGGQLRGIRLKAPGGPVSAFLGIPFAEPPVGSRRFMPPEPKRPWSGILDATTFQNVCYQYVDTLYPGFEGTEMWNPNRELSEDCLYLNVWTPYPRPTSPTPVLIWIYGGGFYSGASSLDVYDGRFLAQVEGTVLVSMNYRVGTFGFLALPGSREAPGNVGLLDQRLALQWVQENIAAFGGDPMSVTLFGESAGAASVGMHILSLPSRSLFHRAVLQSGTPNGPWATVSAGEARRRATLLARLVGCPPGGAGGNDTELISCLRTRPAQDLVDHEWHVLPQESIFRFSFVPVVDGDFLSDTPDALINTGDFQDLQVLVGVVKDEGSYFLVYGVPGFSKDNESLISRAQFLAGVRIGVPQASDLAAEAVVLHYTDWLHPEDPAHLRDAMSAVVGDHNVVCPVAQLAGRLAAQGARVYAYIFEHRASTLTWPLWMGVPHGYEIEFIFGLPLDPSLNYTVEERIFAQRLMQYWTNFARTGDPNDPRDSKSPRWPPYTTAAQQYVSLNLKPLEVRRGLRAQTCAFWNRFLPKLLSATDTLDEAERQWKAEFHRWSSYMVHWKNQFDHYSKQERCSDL
Method: Acetylcholinesterase inhibition in different rat brain regions
AChE preparations of different rat brain regions (Cortex, hippocampus and striatum) are used in this test and the IC50 (inhibitory concentrations in μM) are determined. The enzyme preparations are preincubated with the inhibitor 15 minutes before the determination.
as §1

[3] = system: deoxyglucose (DOG) utilisation in the brain; assay: Muscarinic and nicotinic effects on brain glucose utilisation (deoxyglucose autoradiography); format: in vivo, rat; settings: 7.5 μmol/kg p.o.
Description: Muscarinic and nicotinic effects on brain glucose utilisation
Changes in the functional activity of the CNS are associated with altered deoxyglucose (DOG) utilisation in the brain which can be visualised simultaneously in several brain regions using the autoradiographic method of Sokoloff et al., J. Neurochem. 28, 897 (1977). The administration of cholinergic drugs either direct (muscarinic agonists) or indirect (accumulation of acetylcholine) induces in this model a characteristic "fingerprint" pattern by modifying the regional glucose metabolism.
Male Wistar rats (150-200 g) are used. Drugs are administered at various doses and by different routes (i.v., p.o., i.p.) to animals. [14C]-2-deoxyglucose (125 μC/kg) is injected 45 min. before the animals are sacrificed. The brains are immediately excised, frozen at -80° C. and subsequently cut in slices with a thickness of 20 μm. The optical densities of the radiographic images are measured according to a modification of Sokoloff et al.

AChE [4] = target: T1, AChE; assay: in vivo; format: in vivo; parameters: from tissue; host or cells: male OFA rats: cortex, hippocampus, striatum, pons/medulla, heart, blood; settings: for remaining activity at 10 µmol/kg: rat, po
[5] = system: dopamine metabolism in striatum; assay: Influence on dopamine metabolism; format: in vivo, rat
Method: Influence on dopamine metabolism
Male OFA rats (150-200 g) were used both for acute and subchronic experiments. The animals are maintained under 12 hour periods of light and dark. The animals are sacrificed always between 11.00 and 13.00 h. The brains are excised immediately, dissected on ice according to the method of GLOWINSKI and IVERSEN, J. Neurochem. 13, 655 (1966), frozen on dry ice and the tissue samples stored at -80° C. until analysis.
Dopamine and its metabolites DOPAC (3,4-dihydroxyphenylacetic acid) and HVA (homovanillic acid) are determined in brain tissue extracts which are obtained by homogenisation of the stored brain tissue samples in 0.1N HCl containing 0.05 mM ascorbic acid and subsequent centrifugation. Striatal and cortical tissues are used.
The determination of the metabolites is performed using either the gas chromatography/mass fragmentography (GCMS) technique as described by KAROUM et al., J. Neurochem. 25, 653 (1975) and CATABENI et al., Science 178, 166 (1972) or the fluorometric method as described by […] and MAITRE, Analyt. Biochem. 51, 474 (1973). For the GCMS method, tissue extracts are prepared by adding known amounts of deuterated monoamines and their respective metabolites as internal standards.

[6] = Subcutaneous 8 μmol/kg, 0.5 hours after treatment
[7] = Subcutaneous 8 μmol/kg, 6 hours after treatment
[8] = Subcutaneous 8 μmol/kg, 24 hours after treatment
[9] = Transdermal 30 μmol/kg, 0.5 hours after treatment
[10] = Transdermal 30 μmol/kg, 6 hours after treatment
[11] = Transdermal 30 μmol/kg, 24 hours after treatment

T1 sequence (P37136 32-614): as above

CCN(C)C(=O)Oc1cccc([C@H](C)N(C)C)c1 [Compound A, (S)-N-ethyl-3-[(1-dimethylamino)ethyl]-N-methyl-phenyl-carbamate]
AChE activity in % of controls ± SD, Blood (AChE [1]; 0.5 hours after treatment): 71.3 ± 12.3 % of controls
AChE activity in % of controls ± SD, Cortex (AChE [1]; 6 hours after treatment): 42.4 ± 11.7 % of controls
AChE activity in % of controls ± SD, Striatum (AChE [1]; 6 hours after treatment): 65.9 ± 15.5 % of controls
AChE activity in % of controls ± SD, Blood (AChE [1]; 24 hours after treatment): 78.1 ± 17.8 % of controls
AChE inhibition in vitro, comparison in words [2]: slightly superior than that with racemate C
changes in DOG utilisation in various rat brain regions [3]: significant changes in DOG utilisation
AChE activity in % of controls ± SD, Blood (AChE [4]; [6]): 17.4 ± 4.1 % of controls
AChE activity in % of controls ± SD, Cortex (AChE [4]; [6]): 16.8 ± 2.0 % of controls
AChE activity in % of controls ± SD, Heart (AChE [4]; [6]): 33.3 ± 5.6 % of controls
AChE activity in % of controls ± SD, Hippocampus (AChE [4]; [6]): 18.3 ± 3.1 % of controls
AChE activity in % of controls ± SD, Pons/Medulla (AChE [4]; [6]): 20.9 ± 2.9 % of controls
AChE activity in % of controls ± SD, Striatum (AChE [4]; [6]): 28.2 ± 12.2 % of controls
AChE activity in % of controls ± SD, Blood (AChE [4]; [7]): 79.5 ± 8.2 % of controls
AChE activity in % of controls ± SD, Cortex (AChE [4]; [7]): 85.1 ± 1.6 % of controls
AChE activity in % of controls ± SD, Heart (AChE [4]; [7]): 51.0 ± 17.9 % of controls
AChE activity in % of controls ± SD, Hippocampus (AChE [4]; [7]): 81.4 ± 7.6 % of controls
AChE activity in % of controls ± SD, Pons/Medulla (AChE [4]; [7]): 87.1 ± 4.1 % of controls
AChE activity in % of controls ± SD, Striatum (AChE [4]; [7]): 82.9 ± 2.8 % of controls
AChE activity in % of controls ± SD, Blood (AChE [4]; [8]): 105.7 ± 16.8 % of controls
AChE activity in % of controls ± SD, Cortex (AChE [4]; [8]): 93.8 ± 5.9 % of controls
AChE activity in % of controls ± SD, Heart (AChE [4]; [8]): 65.7 ± 21.2 % of controls
AChE activity in % of controls ± SD, Hippocampus (AChE [4]; [8]): 99.9 ± 9.9 % of controls
AChE activity in % of controls ± SD, Pons/Medulla (AChE [4]; [8]): 98.7 ± 6.0 % of controls
AChE activity in % of controls ± SD, Striatum (AChE [4]; [8]): 91.0 ± 2.3 % of controls
AChE activity in % of controls ± SD, Cortex (AChE [4]; [9]): 86.1 ± 5.6 % of controls
AChE activity in % of controls ± SD, Heart (AChE [4]; [9]): 109.0 ± 9.3 % of controls
AChE activity in % of controls ± SD, Hippocampus (AChE [4]; [9]): 86.7 ± 5.9 % of controls
AChE activity in % of controls ± SD, Pons/Medulla (AChE [4]; [9]): 91.5 ± 3.8 % of controls
AChE activity in % of controls ± SD, Striatum (AChE [4]; [9]): 89.7 ± 8.4 % of controls
AChE activity in % of controls ± SD, Blood (AChE [4]; [10]): 41.9 ± 13.1 % of controls
AChE activity in % of controls ± SD, Heart (AChE [4]; [10]): 52.0 ± 13.1 % of controls
AChE activity in % of controls ± SD, Hippocampus (AChE [4]; [10]): 45.7 ± 15.0 % of controls
AChE activity in % of controls ± SD, Pons/Medulla (AChE [4]; [10]): 53.6 ± 13.3 % of controls
AChE activity in % of controls ± SD, Cortex (AChE [4]; [11]): 73.8 ± 5.7 % of controls
AChE activity in % of controls ± SD, Heart (AChE [4]; [11]): 63.9 ± 12.5 % of controls
AChE activity in % of controls ± SD, Hippocampus (AChE [4]; [11]): 80.4 ± 8.8 % of controls
AChE activity in % of controls ± SD, Pons/Medulla (AChE [4]; [11]): 85.3 ± 4.2 % of controls
AChE activity in % of controls ± SD, Striatum (AChE [4]; [11]): 81.0 ± 8.2 % of controls
time of maximal AChE inhibition (AChE [4]; oral): 15 min
remaining activity at 10 µmol/kg (AChE [4]; read-out: AChE activity in % of controls ± SD, Blood, Oral 10 μmol/kg, 0.5 hours after treatment): 34 ± 2%
remaining activity at 10 µmol/kg (AChE [4]; read-out: AChE activity in % of controls ± SD, Blood, Oral 10 μmol/kg, 6 hours after treatment): 77.2 ± 14.7%
remaining activity at 10 µmol/kg (AChE [4]; read-out: AChE activity in % of controls ± SD, Blood, Oral 10 μmol/kg, 24 hours after treatment): 97.2 ± 13.8%
remaining activity at 10 µmol/kg (AChE [4]; read-out: AChE activity in % of controls ± SD, Cortex, Oral 10 μmol/kg, 0.5 hours after treatment): 21 ± 3.5%
remaining activity at 10 µmol/kg (AChE [4]; read-out: AChE activity in % of controls ± SD, Cortex, Oral 10 μmol/kg, 6 hours after treatment): 65.3 ± 21.3%
remaining activity at 10 µmol/kg (AChE [4]; read-out: AChE activity in % of controls ± SD, Cortex, Oral 10 μmol/kg, 24 hours after treatment): 99.2 ± 8.9%
remaining activity at 10 µmol/kg (AChE [4]; read-out: AChE activity in % of controls ± SD, Heart, Oral 10 μmol/kg, 0.5 hours after treatment): 71.2 ± 11.2%
remaining activity at 10 µmol/kg (AChE [4]; read-out: AChE activity in % of controls ± SD, Heart, Oral 10 μmol/kg, 6 hours after treatment): 101 ± 7%
remaining activity at 10 µmol/kg (AChE [4]; read-out: AChE activity in % of controls ± SD, Heart, Oral 10 μmol/kg, 24 hours after treatment): 94.2 ± 9.2%
remaining activity at 10 µmol/kg (AChE [4]; read-out: AChE activity in % of controls ± SD, Hippocampus, Oral 10 μmol/kg, 0.5 hours after treatment): 19.7 ± 3.8%
remaining activity at 10 µmol/kg (AChE [4]; read-out: AChE activity in % of controls ± SD, Hippocampus, Oral 10 μmol/kg, 6 hours after treatment): 62 ± 15.4%
remaining activity at 10 µmol/kg (AChE [4]; read-out: AChE activity in % of controls ± SD, Hippocampus, Oral 10 μmol/kg, 24 hours after treatment): 97.2 ± 7.1%
remaining activity at 10 µmol/kg (AChE [4]; read-out: AChE activity in % of controls ± SD, Pons/Medulla, Oral 10 μmol/kg, 0.5 hours after treatment): 26.6 ± 4%
remaining activity at 10 µmol/kg (AChE [4]; read-out: AChE activity in % of controls ± SD, Pons/Medulla, Oral 10 μmol/kg, 6 hours after treatment): 80.3 ± 9.2%
remaining activity at 10 µmol/kg (AChE [4]; read-out: AChE activity in % of controls ± SD, Pons/Medulla, Oral 10 μmol/kg, 24 hours after treatment): 104 ± 6.8%
remaining activity at 10 µmol/kg (AChE [4]; read-out: AChE activity in % of controls ± SD, Striatum, Oral 10 μmol/kg, 0.5 hours after treatment): 32.9 ± 10.7%
remaining activity at 10 µmol/kg (AChE [4]; read-out: AChE activity in % of controls ± SD, Striatum, Oral 10 μmol/kg, 6 hours after treatment): 87.5 ± 8.8%
remaining activity at 10 µmol/kg (AChE [4]; read-out: AChE activity in % of controls ± SD, Striatum, Oral 10 μmol/kg, 24 hours after treatment): 96.7 ± 3.3%
time of maximal AChE inhibition (AChE [4]; subcutaneous): 30 min
AChE inhibition after transdermal administration (AChE [4]; transdermal): long-lasting, dose-dependent inhibition of AChE activity
time of maximal AChE inhibition (AChE [4]; transdermal): > 120 min
AChE activity (AChE [4]; twenty four hours after oral application): has no effect on the enzyme
AChE activity (AChE [4]; twenty four hours after s.c. application): only the enzyme in the heart is significantly inhibited
AChE activity (AChE [4]; twenty four hours after transdermal application): still inhibited in central and peripheral regions
dopamine metabolism in striatum ([5]; following administration): increased
enhancing the striatal dopamine metabolite concentration, comparison ([5]; rat, in vivo): more active than compound B and racemate C
